Experimental data reported in patent US20230279002A1, “Polymorphs of Crystalline Forms of 3,10-dimethoxy-5,8,13,13a-tetrahydro-6H-isoquinolino[3,2-a]isoquinolin-9-yl 3-fluorobenzenesulfonate and Salts Thereof” (CVI Pharmaceuticals Limited, priority 2020, published 2023).
Values after ≈ are worked out from the molar mass of the structure shown.

Key:
Format in all cases: physicochemical
[1] = Apparent solubility in organic solvents (visual); conditions: for solubility: thermodynamic from solid
Procedure: Solubility: 2a substance was equilibrated with organic solvents to visually test the apparent solubility. The experiment was terminated once or if the target of 20 mg/mL was achieved.

[2] = Crystallization from hot saturated solutions, solid form by XRPD; conditions: for Solid form: EtOH, XRPD
Procedure: Crystallization from hot saturated solutions: About 100 mg 2a was dissolved with minimal amount of solvent at about 60° C. The solution was filtrated and separated into two portions. One portion was put in ice bath and agitated till the end of the experiment; the other portion was cooled down naturally. The precipitates were collected on a filter, dried and analyzed by XRPD.

[3] = Solvent evaporation, solid form by XRPD
Procedure: Solvent evaporation: About 20 mg 2a was dissolved in organic solvents. The solution was filtrated and dried in the air. The obtained solid part from the evaporation process was analyzed by XRPD.

[4] = Precipitation by addition of anti-solvent, solid form by XRPD
Procedure: The precipitates were collected and analyzed by XRPD.
2a was dissolved in ACN or MeOH, and water or heptane was added as anti-solvent. […] The XRPD pattern of compound 2a (bottom) and compound 2a dissolved in ACN then precipitated with heptane (top) is shown in FIG. 6. The XRPD pattern of compound 2a (bottom trace) and compound 2a dissolved in MeOH then precipitated with heptane (top trace) or water (center trace) is shown in FIG. 7.

[5] = Equilibration with solvent at 25° C. and 50° C. (slurry), solid form by XRPD
Procedure: Equilibration with solvent at 25° C. and 50° C.: About 50 mg of 2a was equilibrated with 1 ml solvents at 25° C. and 50° C. After stirring for 1 day and 7 days, the suspensions were centrifuged. The solid part was collected and analyzed by XRPD, then dried in the air for 10 min and analyzed by XRPD. After equilibrium with solvent at 25° C. and 50° C. for 1 and 7 days, the crystal form was not changed. […] The XRPD spectra of the solid equilibrated with each solvent listed in Table 12, at 25° C. and 50° C., are shown overlaid that of undisturbed 2a in FIG. 8 through FIG. 14.

With COc1ccc2c(c1)CCN1Cc3c(ccc(OC)c3OS(=O)(=O)c3cccc(F)c3)C[C@H]21 [Compound 2a] the solubility ([1]; 50% EtOH (aq), aqueous with cosolvent or surfactant or cyclodextrin) was < 990 µg/mL, the “Solubility (mg/ml)” value ([1]; ACN) was 6.17~18.5 mg/ml and the solubility ([1]; EtOH, organic solvent or mixture) was 2100 to 3150 µg/mL (≈ 4.47 to 6.71 mM). The solubility ([1]; THF, organic solvent or mixture) was < 1140 µg/mL, the solubility ([1]; acetone, organic solvent or mixture) was 2220 to 3330 µg/mL (≈ 4.73 to 7.09 mM) and the solubility ([1]; acetonitrile, organic solvent or mixture, ACN) was 6170 to 18500 µg/mL (≈ 13.1 to 39.4 mM). For the same compound, the solubility ([1]; ethyl acetate, organic solvent or mixture) was < 1800 µg/mL, the solubility ([1]; heptane, organic solvent or mixture) was < 1430 µg/mL and the solubility ([1]; methanol, organic solvent or mixture, MeOH) was > 17000 µg/mL. For the same compound, the solubility ([1]; water) was < 1080 µg/mL, the Solid form ([2]; quick (ice bath)) was “partially crystalline” and the Solid form ([2]; slow (cooled down naturally)) was “no crystal, failed”. The “Solid form after crystallization from hot saturated solutions” value ([2]; dissolved at about 60° C., cooled) was “partially crystalline”, the “Solid form after evaporation” value ([3]; ACN) was “Amorphous” and the “Solid form after evaporation” value ([3]; Acetone) was “Amorphous”. The “Solid form after evaporation” value ([3]; EtOH) was “Amorphous”, the “Solid form after evaporation” value ([3]; MeOH) was “Amorphous” and the “Crystal form after precipitation by anti-solvent” value ([4]; heptane as anti-solvent (ACN or MeOH solution)) was “not changed”. For the same compound, the Solid form ([4]; solvent ACN, anti-solvent Heptane (6 volumes)) was “Crystal, no change”, the Solid form ([4]; solvent ACN, anti-solvent Water (6 volumes)) was “No crystal, failed” and the Solid form ([4]; solvent MeOH, anti-solvent Heptane (3 volumes)) was “Crystal, no change”. The Solid form ([4]; solvent MeOH, anti-solvent Water (2 volumes)) was “Amorphous”, the “Crystal form after precipitation by anti-solvent” value ([4]; water added to MeOH solution) was “transformed to amorphous” and the “Crystal form after equilibration with solvent” value ([5]; 25° C. and 50° C., 1 and 7 days) was “not changed”. For the same compound, the Slurry solid form ([5]; 50% EtOH (aq), 25° C.-1 day) was “Crystal, no change”, the Slurry solid form ([5]; 50% EtOH (aq), 25° C.-7 day) was “Crystal, no change” and the Slurry solid form ([5]; 50% EtOH (aq), 50° C.-1 day) was “partially crystalline”. The Slurry solid form ([5]; ACN, 25° C.-1 day) was “Crystal, no change”, the Slurry solid form ([5]; ACN, 25° C.-7 day) was “Crystal, no change” and the Slurry solid form ([5]; ACN, 50° C.-1 day) was “Crystal, no change”. The Slurry solid form ([5]; Acetone, 25° C.-1 day) was “Crystal, no change”, the Slurry solid form ([5]; Acetone, 25° C.-7 day) was “Crystal, no change” and the Slurry solid form ([5]; Acetone, 50° C.-1 day) was “Crystal, no change”. For the same compound, the Slurry solid form ([5]; EtOAc, 25° C.-1 day) was “Crystal, no change”, the Slurry solid form ([5]; EtOAc, 25° C.-7 day) was “Crystal, no change” and the Slurry solid form ([5]; EtOAc, 50° C.-1 day) was “Crystal, no change”. The Slurry solid form ([5]; EtOH, 25° C.-1 day) was “Crystal, no change”, the Slurry solid form ([5]; EtOH, 25° C.-7 day) was “Crystal, no change” and the Slurry solid form ([5]; EtOH, 50° C.-1 day) was “Crystal, no change”. For the same compound, the Slurry solid form ([5]; IPA, 25° C.-1 day) was “Crystal, no change”, the Slurry solid form ([5]; IPA, 25° C.-7 day) was “Crystal, no change” and the Slurry solid form ([5]; MeOH, 25° C.-1 day) was “Crystal, no change”. For the same compound, the Slurry solid form ([5]; MeOH, 25° C.-7 day) was “Crystal, no change”, the Slurry solid form ([5]; MeOH, 50° C.-1 day) was “Clear solution” and the Slurry solid form ([5]; THF, 25° C.-1 day) was “Crystal, no change”. The Slurry solid form ([5]; THF, 25° C.-7 day) was “Crystal, no change”, the Slurry solid form ([5]; THF, 50° C.-1 day) was “Crystal, no change” and the Slurry solid form ([5]; Water, 25° C.-1 day) was “Crystal, no change”. For the same compound, the Slurry solid form ([5]; Water, 25° C.-7 day) was “Crystal, no change” and the Slurry solid form ([5]; Water, 50° C.-1 day) was “partially crystalline”.
